Measurements as given in patent publication US5047402A, “Cyclic amides as medicaments” (ICI Americas Inc., priority 1989, dated 1991).

Target: T1, LTD4 /E4 receptors (Cavia porcellus, UniProt Q2NNR5)
T1 construct: membrane fractions, containing the LTD4 /E4 receptors, are prepared from guinea-pig lung parenchyma; from tissue; host or cells: guinea-pig lung parenchyma membrane fractions
T1 sequence (Q2NNR5 1-340): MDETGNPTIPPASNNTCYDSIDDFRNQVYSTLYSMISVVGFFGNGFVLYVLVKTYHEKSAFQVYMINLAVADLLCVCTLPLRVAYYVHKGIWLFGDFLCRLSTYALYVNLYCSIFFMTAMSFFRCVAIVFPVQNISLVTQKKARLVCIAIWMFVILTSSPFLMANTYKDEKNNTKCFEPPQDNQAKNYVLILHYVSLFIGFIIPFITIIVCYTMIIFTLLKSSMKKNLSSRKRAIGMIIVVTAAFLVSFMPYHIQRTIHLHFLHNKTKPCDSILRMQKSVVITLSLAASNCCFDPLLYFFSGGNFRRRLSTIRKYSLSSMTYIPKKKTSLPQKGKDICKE
Assay: receptor-ligand binding assay with 3H-LTD4 on guinea-pig lung parenchyma membrane fractions
Conditions: 1nM 3H-LTD4, 30 minutes at 22° C., Ki calculated from IC50 by the Cheng-Prusoff equation
Method: According to this procedure, membrane fractions, containing the LTD4 /E4 receptors, are prepared from guinea-pig lung parenchyma and incubated for 30 minutes at 22° C. with 1nM ^3 H-LTD4 in the absence or presence of tested antagonist. Specific binding, determined under conditions that prevent enzymatic metabolism of ^3 H-LTD4, is the net result of total ^3 H-LTD4 binding minus nonspecific binding determined in the presence of 1-2000 fold excess unlabelled LTD^4. Each assay is done in duplicate and results (Ki values) are typically a mean of several such determinations in individual receptor batches.
The % inhibition by a tested antagonist, relative to control binding (vehicle alone), is expressed as a fraction of log[antagonist] concentration (in molar units) and the half-maximal inhibition (IC50) determined by computerized non-linear least-square analysis. The binding constant (Ki) is then calculated from IC50 by the Cheng-Prusoff equation: [formula] where [L] is ^3 H-LTD4 concentraton and Kd is the affinity constant of LTD4 to this receptor, determined separately for each batch. (Biochem. Pharmacol. 22: 3099-3108, 1973).

`CCCN1CCC(Cc2ccc3c(c2)c(Cc2ccc(C(=O)NS(=O)(=O)c4ccccc4C)cc2OC)cn3CCC)C1=O` (stereo not shown) [Example 1, 3-Methoxy-N-(2-methylphenylsulfonyl)-4-[1-propyl-5-(1-propyl-2-oxopyrrolidin-3-ylmethyl)indol-3-ylmethyl]benzamide] gave a Ki of 1 nM.
